19 compounds from ChEMBL document CHEMBL1134081, “MEK (MAPKK) inhibitors. Part 2: structure-activity relationships of 4-anilino-3-cyano-6,7-dialkoxyquinolines” (Bioorg Med Chem Lett, 2001) can be followed below.

Test [1] concerns the target T1, Dual specificity mitogen-activated protein kinase kinase 1 (Homo sapiens, UniProt Q02750). Description: Inhibitory activity against Dual specificity mitogen-activated protein kinase kinase using coupled MEK assay (which uses activated Raf to activate an inactivate GST-MEK).
Test [2] deals with T1, Dual specificity mitogen-activated protein kinase kinase 1. In words: Inhibitory activity against Dual specificity mitogen-activated protein kinase kinase using direct MEK assay (which by-passes the need for activated Raf by using an activated GST-MEK).
The next test concerns LoVo. Description: Inhibition of LoVo human colon tumor cell proliferation.
The target of test [3] is T1, Dual specificity mitogen-activated protein kinase kinase 1. In words: Inhibition of Dual specificity mitogen-activated protein kinase kinase in direct activated MEK assay.
Test [4] shares this target. In words: Inhibition of Dual specificity mitogen-activated protein kinase kinase in coupled activated Raf/MEK assay.

By IC50 is commonly meant the concentration at which inhibition is half-maximal. A high value points to lower potency.

SMILES strings stand for the structures.

T1 sequence (Q02750 whole entry): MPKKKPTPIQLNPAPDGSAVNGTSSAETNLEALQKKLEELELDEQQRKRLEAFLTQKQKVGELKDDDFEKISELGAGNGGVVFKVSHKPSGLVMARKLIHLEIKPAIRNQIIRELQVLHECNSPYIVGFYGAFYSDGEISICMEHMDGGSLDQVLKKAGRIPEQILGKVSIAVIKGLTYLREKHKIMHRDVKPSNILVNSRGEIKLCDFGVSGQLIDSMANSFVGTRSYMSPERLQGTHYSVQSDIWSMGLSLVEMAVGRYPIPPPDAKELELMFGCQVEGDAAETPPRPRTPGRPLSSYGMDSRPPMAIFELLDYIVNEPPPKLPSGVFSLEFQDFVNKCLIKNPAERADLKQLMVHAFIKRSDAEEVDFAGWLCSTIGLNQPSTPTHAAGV

As for `COc1ccc(Nc2c(C#N)cnc3cc(OC)c(OC)cc23)cc1`, the figures for the IC50 in test [1] and in test [2] were 520 nM and 3000 nM, respectively.

For `COc1cc2c(Nc3ccc(SC4CCCCC4)cc3)c(C#N)cnc2cc1OCCCN1CCOCC1`, the figures for the concentration for half-maximal inhibition (IC50) in test [1] and in test [2] were 21 nM and 300 nM, respectively.

On to `COc1cc2c(Nc3ccc(CC4CCCCC4)cc3)c(C#N)cnc2cc1OCCCN1CCOCC1`, for which the IC50 in test [1] was 200 nM; in test [2], 3300 nM.

Regarding `COc1cc2ncc(C#N)c(Nc3ccccc3Oc3ccccc3)c2cc1OC`, the IC50 in test [1] and in test [2] was over 10000 nM each time.

Turning to `COc1cc2c(Nc3ccc(Cc4cccs4)cc3)c(C#N)cnc2cc1OCCCN1CCOCC1`, the figures for the IC50 in test [1] and in test [2] were 4.4 nM and 20 nM, respectively.

For `COc1cc2c(Nc3ccc(Sc4ccccc4)cc3)c(C#N)cnc2cc1OCCCN1CCOCC1`, the IC50 was determined as 1.1 nM in test [1], 220 nM in the test on LoVo and 5.7 nM in test [2].

`COc1cc2ncc(C#N)c(Nc3ccc(O)cc3)c2cc1OC`: the values for the half-inhibitory concentration (IC50) in test [1] and in test [2] were 550 nM and 2200 nM, respectively.

In the case of `COc1cc2c(Nc3ccc(Cc4ccsc4)cc3)c(C#N)cnc2cc1OCCCN1CCOCC1`, the IC50 was found to be 4.2 nM in test [1] and 23 nM in test [2].

Turning to `COc1ccc(Nc2c(C#N)cnc3cc(OCCCN4CCOCC4)c(OC)cc23)cc1`, the IC50 in test [1] was 99 nM; in test [2], 250 nM.

For the compound `COc1cc2c(Nc3ccc(CCc4ccccc4)cc3)c(C#N)cnc2cc1OCCCN1CCOCC1`, the figures for the 50% inhibitory concentration (IC50) in test [3] and in test [4] were 150 nM and 33 nM, respectively.

As for `COc1cc2ncc(C#N)c(Nc3ccc(SC)cc3)c2cc1OC`, the concentration for half-maximal inhibition (IC50) turned out to be 280 nM in test [1] and 1300 nM in test [2].

As for `COc1cc2c(Nc3ccc(Cc4ccccc4)cc3)c(C#N)cnc2cc1OCCCN1CCOCC1`, the IC50 in test [1] was 2.7 nM; in the test with LoVo it was 210 nM; in test [2], 14 nM.

For the compound `COc1cc2c(Nc3ccc(Cc4ccoc4)cc3)c(C#N)cnc2cc1OCCCN1CCOCC1`, the results for the IC50 in test [1] and in test [2] were 14 nM and 43 nM, respectively.

With `COc1cc2c(Nc3ccc(Cc4ccco4)cc3)c(C#N)cnc2cc1OCCCN1CCOCC1`, the IC50 worked out at 20 nM in test [1] and 66 nM in test [2].

Take `COc1cc2c(Nc3ccc(OC4CCCCC4)cc3)c(C#N)cnc2cc1OCCCN1CCOCC1`: the IC50 in test [1] was determined as 110 nM; in test [2], 320 nM.

In the case of `COc1cc2ncc(C#N)c(Nc3ccc(Oc4ccc(Cl)cc4)cc3)c2cc1OC`, the figures for the IC50 in test [1] and in test [2] were 43 nM and 210 nM, respectively.

Consider `COc1cc2c(Nc3ccc(Oc4ccncc4)cc3)c(C#N)cnc2cc1OCCCN1CCOCC1`, for which the IC50 in test [1] was determined as 26 nM; in test [2], 81 nM.

In the case of `COc1cc2ncc(C#N)c(Nc3ccc(Nc4ccccc4)cc3)c2cc1OC`, the results for the IC50 in test [1] and in test [2] were 160 nM and 1200 nM, respectively.

Compound `COc1cc2c(Nc3ccc(Oc4ccccc4)cc3)c(C#N)cnc2cc1OCCCN1CCOCC1` came in with an IC50 in test [1] of 2.4 nM.
